Laboratory results as given in PMC9573294, “AVA-NP-695 Selectively Inhibits ENPP1 to Activate STING Pathway and Abrogate Tumor Metastasis in 4T1 Breast Cancer Syngeneic Mouse Model” (Molecules, 2022).

Target: T1, Ectonucleotide pyrophosphatase/phosphodiesterase 1 (ENPP1) (Homo sapiens, UniProt P22413)
T1 construct: Human recombinant ENPP1 (rENPP1)
T1 sequence (P22413 98-925 limits assumed): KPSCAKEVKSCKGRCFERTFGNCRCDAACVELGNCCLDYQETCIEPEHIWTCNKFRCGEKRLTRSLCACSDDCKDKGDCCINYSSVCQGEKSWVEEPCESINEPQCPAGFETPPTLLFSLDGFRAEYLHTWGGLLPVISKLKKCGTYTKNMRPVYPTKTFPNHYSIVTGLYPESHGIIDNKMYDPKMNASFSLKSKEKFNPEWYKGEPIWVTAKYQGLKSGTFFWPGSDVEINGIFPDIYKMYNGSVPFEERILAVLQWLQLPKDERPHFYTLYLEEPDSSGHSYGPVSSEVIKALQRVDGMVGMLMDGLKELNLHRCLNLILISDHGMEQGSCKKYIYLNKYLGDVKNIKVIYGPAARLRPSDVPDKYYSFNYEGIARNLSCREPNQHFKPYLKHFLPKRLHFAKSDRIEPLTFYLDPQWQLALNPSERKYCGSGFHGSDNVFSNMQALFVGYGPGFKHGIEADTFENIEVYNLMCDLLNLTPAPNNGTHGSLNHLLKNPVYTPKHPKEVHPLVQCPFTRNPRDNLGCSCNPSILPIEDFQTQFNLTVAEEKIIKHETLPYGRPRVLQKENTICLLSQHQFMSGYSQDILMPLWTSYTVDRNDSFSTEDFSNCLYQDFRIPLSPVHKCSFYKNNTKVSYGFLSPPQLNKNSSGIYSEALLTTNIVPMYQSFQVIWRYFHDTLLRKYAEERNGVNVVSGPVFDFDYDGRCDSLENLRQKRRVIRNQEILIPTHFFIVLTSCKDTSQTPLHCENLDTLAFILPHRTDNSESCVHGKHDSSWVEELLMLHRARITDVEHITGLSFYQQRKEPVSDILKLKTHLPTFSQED
Experiment: enzymatic assay with p-Nph-5'-TMP substrate (Ki […] with […]'[…]'-cGAMP and […] with p-NPh-5'-TMP also printed)
Type: biochemical

IC50: 14 ± 2 nM
Substance: AVA-NP-695
